Source: patent publication US20150105252A1, “SUBSTITUTED PYRAZOLES AS HERBICIDES” (E I DU PONT DE NEMOURS AND COMPANY, priority 2013, published 2015)

Legend:
crabgrass, large = assay: Test A preemergence; assay type: in vivo, Digitaria sanguinalis; conditions: preemergence
How it was run: (§1)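 Visual injury ratings, 0 = no effect to 100 = complete control, taken about 10 days after treatment against untreated controls. Test chemicals, in a non-phytotoxic surfactant-containing solvent, were sprayed onto soil preemergence or onto one- to two-leaf plants (2–10 cm) postemergence, in loam–sand soil under greenhouse conditions.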

wheat = assay: Test A preemergence; assay type: in vivo, Triticum aestivum; conditions: preemergence
How it was run: as §1

morningglory = assay: Test A postemergence; assay type: in vivo, Ipomoea spp.
How it was run: as §1

soybean [1] = assay: Test C preemergence; assay type: in vivo, Glycine max
How it was run: (§2)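 Visual rating, 0–100 scale (0 no effect, 100 complete control), vs untreated controls after 13–15 d greenhouse. Pre: seeds in loam/sand, treated at sowing. Post: plants in peat-based mix, 1- to 4-leaf (2–18 cm). Solvent + surfactant formulation, non-phytotoxic.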

barnyardgrass = assay: Test C preemergence; assay type: in vivo, Echinochloa crus-galli
How it was run: as §2

waterhemp = assay: Test C preemergence; assay type: in vivo, Amaranthus rudis
How it was run: as §2

velvetleaf = assay: Test C preemergence; assay type: in vivo, Abutilon theophrasti
How it was run: as §2

ryegrass, Italian = assay: Test C postemergence; assay type: in vivo, Lolium multiflorum
Text: (§3) Seeds of plant species selected from blackgrass (Alopecurus myosuroides), ryegrass, Italian (Italian ryegrass, Lolium multiflorum), wheat (winter wheat, Triticum aestivum), galium (catchweed bedstraw, Galium aparine), corn (Zea mays), crabgrass, large (large crabgrass, Digitaria sanguinalis), foxtail, giant (giant foxtail, Setaria faberii), johnsongrass (Sorghum halepense), lambsquarters (Chenopodium album), morningglory (Ipomoea coccinea), nutsedge, yellow (yellow nutsedge, Cyperus esculentus), pigweed (redroot pigweed, Amaranthus retroflexus), ragweed (common ragweed, Ambrosia elation), soybean (Glycine max), barnyardgrass (Echinochloa crus-galli), oilseed rape (Brassica napus), waterhemp (common waterhemp, Amaranthus rudis), oat, wild (wild oat, Avena fatua), kochia (Kochia scoparia), Surinam grass (Brachiaria decumbens), foxtail, green (green foxtail, Setaria viridis), goosegrass (Eleusine indica), bromegrass, downy (downy bromegrass, Bromus tectorum), nightshade (eastern black nightshade, Solanum ptycanthum), cocklebur (common cocklebur, Xanthium strumarium), cupgrass, woolly (woolly cupgrass, Eriochloa villosa), bermudagrass (Cynodon dactylon), sunflower, (common oilseed sunflower, Helianthus annuus), Russian thistle (Salsola kali), and velvetleaf (Abutilon theophrasti) were planted into a blend of loam soil and sand and treated preemergence with test chemicals formulated in a non-phytotoxic solvent mixture which included a surfactant.
(§4) At the same time, plants selected from these crop and weed species and also chickweed (common chickweed, Stellaria media), canarygrass (littleseed canarygrass, Phalaris minor), and deadnettle (henbit deadnettle, Lamium amplexicaule), were planted in pots containing Redi-Earth® planting medium (Scotts Company, 14111 Scottslawn Road, Marysville, Ohio 43041) comprising spaghnum peat moss, vermiculite, wetting agent and starter nutrients and treated with postemergence applications of test chemicals formulated in the same manner. Plants ranged in height from 2 to 18 cm (1- to 4-leaf stage) for postemergence treatments. Treated plants and controls were maintained in a greenhouse for 13 to 15 days, after which time all species were compared to controls and visually evaluated. Plant response ratings, summarized in Table C, are based on a scale of 0 to 100 where 0 is no effect and 100 is complete control. A dash (-) response means no test result.

corn = assay: Test C postemergence; assay type: in vivo, Zea mays
Text: as §3, §4

foxtail, giant = assay: Test C postemergence; assay type: in vivo, Setaria faberii
Text: as §3, §4

johnsongrass = assay: Test C postemergence; assay type: in vivo, Sorghum halepense
Text: as §3, §4

nutsedge, yellow = assay: Test C postemergence; assay type: in vivo, Cyperus esculentus
Text: as §3, §4

ragweed = assay: Test C postemergence; assay type: in vivo, Ambrosia elation
Text: as §3, §4

soybean [2] = assay: Test C postemergence; assay type: in vivo, Glycine max
How it was run: as §2

oilseed rape = assay: Test C postemergence; assay type: in vivo, Brassica napus
How it was run: as §2

[3] = 125 g ai/ha, visual injury, 0 to 100 scale, approx. 10 days
[4] = 500 g ai/ha, visual injury after approx. 10 days, 0 to 100 scale (0 no effect, 100 complete control)
[5] = preemergence, 31 g ai/ha, visual rating, scale 0 to 100 (0 no effect, 100 complete control), 13 to 15 days
[6] = preemergence, 62 g ai/ha, 13 to 15 days, scale 0 to 100, 0 = no effect, 100 = complete control
[7] = preemergence, 125 g ai/ha, scale 0 to 100, 0 is no effect, 100 is complete control
[8] = Postemergence, 31 g ai/ha, visually evaluated after 13 to 15 days
[9] = postemergence, 62 g ai/ha, scale 0 to 100
[10] = postemergence, 250 g ai/ha, scale 0 to 100 (0 no effect, 100 complete control)
[11] = postemergence, 125 g ai/ha, scale 0 to 100, 0 no effect, 100 complete control

CCc1cc(C(=O)NC(C)C)nn1Cc1ccnc(C(F)(F)F)c1 [Compound 103]
Crabgrass, Large plant response rating (crabgrass, large; [3]): 100 | Crabgrass, Large plant response rating (crabgrass, large; [4]): 100 | Wheat plant response rating (wheat; [3]): 40 | Wheat plant response rating (wheat; [4]): 100 | Morningglory plant response rating (morningglory; Postemergence, 500 g ai/ha, visual rating after approx. 10 days, 0 to 100 scale (0 no effect, 100 complete control)): 100 | Morningglory plant response rating (morningglory; postemergence, 125 g ai/ha, about 10 days, visual rating on 0 to 100 scale (0 no effect, 100 complete control)): 90 | Plant response rating (scale of 0 to 100), Soybean (soybean [1]; Preemergence, 250 g ai/ha): 100 | Soybean plant response rating (soybean [1]; [5]): 90 | Plant response rating, Soybean (soybean [1]; [6]): 100 | Soybean plant response rating (soybean [1]; [7]): 100 | Plant response rating (scale of 0 to 100), Barnyardgrass (barnyardgrass; Preemergence, 250 g ai/ha): 100 | Barnyardgrass plant response rating (barnyardgrass; preemergence, 31 g ai/ha, scale 0 to 100 (0 no effect, 100 complete control), 13 to 15 days): 100 | Plant response rating, Barnyardgrass (barnyardgrass; [6]): 100 | Barnyardgrass plant response rating (barnyardgrass; [7]): 100 | Plant response rating (scale of 0 to 100), Waterhemp (waterhemp; Preemergence, 250 g ai/ha): 100 | Waterhemp plant response rating (waterhemp; [5]): 100 | Plant response rating, Waterhemp (waterhemp; [6]): 100 | Waterhemp plant response rating (waterhemp; [7]): 100 | Plant response rating (scale of 0 to 100), Velvetleaf (velvetleaf; Preemergence, 250 g ai/ha): 100 | Velvetleaf plant response rating (velvetleaf; [5]): 100 | Plant response rating, Velvetleaf (velvetleaf; [6]): 100 | Velvetleaf plant response rating (velvetleaf; [7]): 100 | Plant response rating (scale of 0 to 100 where 0 is no effect and 100 is complete control), Ryegrass, Italian (ryegrass, Italian; [8]): 5 | Ryegrass, Italian plant response rating (ryegrass, Italian; [9]): 5 | Plant response rating, Ryegrass, Italian (ryegrass, Italian; [10]): 45 | Plant response rating, Ryegrass, Italian (ryegrass, Italian; [11]): 5 | Plant response rating (scale of 0 to 100 where 0 is no effect and 100 is complete control), Corn (corn; [8]): 10 | Corn plant response rating (corn; [9]): 15 | Plant response rating, Corn (corn; [10]): 95 | Plant response rating, Corn (corn; [11]): 35 | Plant response rating (scale of 0 to 100 where 0 is no effect and 100 is complete control), Foxtail, Giant (foxtail, giant; [8]): 40 | Foxtail, Giant plant response rating (foxtail, giant; [9]): 40 | Plant response rating, Foxtail, Giant (foxtail, giant; [10]): 90 | Plant response rating, Foxtail, Giant (foxtail, giant; [11]): 60 | Plant response rating (scale of 0 to 100 where 0 is no effect and 100 is complete control), Johnsongrass (johnsongrass; [8]): 5 | Johnsongrass plant response rating (johnsongrass; [9]): 10 | Plant response rating, Johnsongrass (johnsongrass; [10]): 95 | Plant response rating, Johnsongrass (johnsongrass; [11]): 20 | Plant response rating (scale of 0 to 100 where 0 is no effect and 100 is complete control), Nutsedge, Yellow (nutsedge, yellow; [8]): 10 | Nutsedge, Yellow plant response rating (nutsedge, yellow; [9]): 10 | Plant response rating, Nutsedge, Yellow (nutsedge, yellow; [10]): 20 | Plant response rating, Nutsedge, Yellow (nutsedge, yellow; [11]): 10 | Plant response rating (scale of 0 to 100 where 0 is no effect and 100 is complete control), Ragweed (ragweed; [8]): 35 | Ragweed plant response rating (ragweed; [9]): 70 | Plant response rating, Ragweed (ragweed; [10]): 90 | Plant response rating, Ragweed (ragweed; [11]): 80 | Plant response rating (scale of 0 to 100 where 0 is no effect and 100 is complete control), Soybean (soybean [2]; [8]): 45 | Soybean plant response rating (soybean [2]; [9]): 70 | Plant response rating, Soybean (soybean [2]; [10]): 98 | Plant response rating, Soybean (soybean [2]; [11]): 95 | Plant response rating (scale of 0 to 100 where 0 is no effect and 100 is complete control), Oilseed Rape (oilseed rape; [8]): 5 | Oilseed Rape plant response rating (oilseed rape; [9]): 50 | Plant response rating, Oilseed Rape (oilseed rape; [10]): 70 | Plant response rating, Oilseed Rape (oilseed rape; [11]): 50
